Assay results reported in patent US20240374646A1, “COMPOSITION FOR INHIBITING INFLAMMATION OR AGING OF STEM CELLS, AND METHOD FOR INHIBITING INFLAMMATION OR AGING BY USING SAME” (MITOIMMUNE THERAPEUTICS INC., priority 2021, published 2024).

How the values were obtained:
Type in all cases: cell-based, human
[1] = tested on: monocyte chemotactic protein-1 (MCP-1); test: Real-time qPCR, SASP factor MCP-1; details: vs MSCs exposed to TNF-α/IFN-γ; FIG. 4C
Procedure: Real-time qPCR was performed using an Easy-Spin Total RNA Kit (iNtRON, Seongnam, Korea) to extract total RNA from hPD-MSCs and RNA concentration was adjusted to 100 ng/μL using a microplate spectrophotometer (Epoch™ Microplate Spectrophotometer, BioTek, Winooski, VT, USA), and the extracted RNA was reverse transcribed into cDNA using RT PreMix (dT20) (Bioneer, Seoul, Korea) using a SimpliAmp Thermal Cycler (Life Technologies, Carlsbad, CA, USA). Real-time qPCR was performed using a real-time PCR machine (CFX Connect, Bio-Rad, Hercules, CA, USA), SYBR Green Supermix (Bio-Rad) and the relevant primers, and all experiments were performed in triplicate for statistical analysis.
In the present experiment, the expression of IL-1β, IL-6, and monocyte chemotactic protein-1 (MCP-1), which are SASP-associated factors of the untreated MSC control, the TNF-α/IFN-γ-exposed MSC control (TI), and the experimental group treated with the example compound in the TNF-α/IFN-γ-exposed MSC control was analyzed by real-time qPCR. As the real-time qPCR analysis method, the same method described in Experimental Example 1-2 above was used, and the results are shown in FIGS. 4A to 4C.

AKT = test: Western blotting, AKT phosphorylation ratio (mTORC1 pathway); details: vs MSC control exposed to TNF-α/IFN-γ; FIG. 4D
Procedure: Further, the phosphorylation-induced activation ratios of AKT/mTOR/S6K, which represents the mTORC1 pathway, was analyzed. mTORC1 activation is known to not only induce senescence-associated phenotypes in MSCs, but also impair quiescence and sternness. In the present experiment, the phosphorylation ratio was confirmed using western blotting analysis as described below.
Proteins were extracted with a Pro-Prep protein lysis buffer (iNtRON) and quantified by a protein quantitative analysis kit (BIOMAX, Seoul, Korea). Samples were then heated in 4× Laemmli sample buffer (Bio-Rad) containing 2-mercaptoethanol (Bio-Rad), and proteins were loaded onto an 8% sodium dodecyl sulfate polyacrylamide gel and electrophoresed at 60 V for 30 minutes, and then electrophoresed at 120 V for 1 hour. […]
Immunoreactive bands were detected using an enhanced chemiluminescence detection reagent (Clarity™ Western blot substrate, Bio-Rad) and images of the bands were obtained using ImageSaver Version 6 (ATTO, Tokyo, Japan). The intensity of each band was analyzed with CA4 analyzer software (ATTO), and each experiment was performed in triplicate under the same conditions. […]

NANOG = test: Real-time qPCR, NANOG stemness gene expression; details: TNF-α/IFN-γ-exposed MSCs (TI) treated with compound; FIG. 1B
Procedure: Human placenta-derived mesenchymal stem cells (hPD-MSCs) were harvested from inside the placental chorion, and the harvested cells were cultured in an alpha-Minimum Essential medium (Cytiva, Marlborough, MA, USA) supplemented with 10% fetal bovine serum (ThermoFisher, Waltham, MA, USA), 1% penicillin/streptomycin (ThermoFisher, Waltham, MA, USA), 25 ng/mL human fibroblast growth factor-4 (Peprotech, Rocky Hill, NJ, USA) and 1 μg/mL heparin (Merck, San Francisco, CA, USA). A total of 1×10^5 hPD-MSCs were seeded in a cell culture dish (90×20 mm) (SPL, Pocheon, Korea) and cultured at 37° C. in an incubator containing 5% CO2. The cells were subcultured every 4 days until reaching 70 to 80% confluency. Expanded cells were obtained at passage 12 or 13. During subculture, viable cells were stained with Trypan blue (Merck) and the number of cells was manually counted.
In a passage for sample extraction, hPD-MSCs were cultured for 24 hours in a medium with or without an example compound (5-[(1,1-dioxido-4-thiomorpholinyl)methyl]-2-phenyl-N-(tetrahydro-2H-pyran-4-yl)-1H-indole-7-amine) while including 2.5 ng/mL TNF-α (Peprotech) and 25 ng/mL IFN-γ (Peprotech).
In the present experiment, the expression levels of stem cell differentiation-related genes and cell cycle-related genes were analyzed by qPCR. […]

[2] = tested on: TNF-α/IFN-γ-exposed hPD-MSCs; test: Reactive oxygen species (ROS) assay, H2DCFDA; details: TNF-α/IFN-γ-exposed MSC control (TI) treated with compound; FIG. 3F
Procedure: To investigate ROS levels, a total of 5×10^3 hPD-MSCs were seeded into each well of a 96-well black-microplate (SPL, 33196) and cultured for 24 hours, and then the cells were washed and cultured in a pre-warmed Hanks' balanced salt solution (14025092, ThermoFisher) containing 50 μM H2DCFDA (D399; ThermoFisher) for 30 minutes. Fluorescence intensity at a wavelength of 555 nm was measured at a wavelength of 488 nm using a Multi-Mode MicroPlate Reader (FlexStation 3, Molecular Devices, Silicon Valley, CA, USA), and the results are shown in FIG. 3F.

O=S1(=O)CCN(Cc2cc(NC3CCOCC3)c3[nH]c(-c4ccccc4)cc3c2)CC1 [example compound, 5-[(1,1-dioxido-4-thiomorpholinyl)methyl]-2-phenyl-N-(tetrahydro-2H-pyran-4-yl)-1H-indole-7-amine]
decrease of MCP-1 expression [1]: ~15% | reduction of AKT phosphorylation ratio (pAKT/AKT) (AKT): about 25% | NANOG expression (relative to untreated MSC control) (NANOG): significantly increased to a level similar to that of the untreated MSC control | ROS value [2]: reduced to the level of the untreated MSC control
